Literature values in patent publication US10792281B2 (priority 2014, dated 2020).
Where two headings read alike, the source gives them in different places.

Assays:
[1] = human, in vivo
[2] = not given; remark: listed apart in the source
[3] = in vivo
[4] = tested on: nuclear factor kappa-B (NF-kB) and activator protein-1 (AP-1) activity

SMILES: O=C(O)COCCN1CCN([C@H](c2ccccc2)c2ccc(Cl)cc2)CC1 [levocetirizine]
- peak concentration (repeated 5 mg once daily oral dose): 308 ng/mL
- peak concentration (single 5 mg oral dose): 270 ng/mL
- doses that can be safely administered [1]: up to 30 mg/day
- HRV-induced ICAM-1, cytokine expression, and viral replication (human rhinovirus (HRV); airway epithelial cells from both the nose and lung): inhibit
- decrease of viral titers (human rhinovirus (HRV); in vitro, e.g. rhinovirus): 2 log

SMILES: Clc1ccc2c(c1)CCc1cccnc1C2=C1CCNCC1 [Desloratadine, desloratadine]
- half-life ([2]; in vivo): 27 h
- half-life ([2]; slow metabolizers): > 50 h

SMILES: CN(c1nccc(=O)[nH]1)C1CCN(c2nc3ccccc3n2Cc2ccc(F)cc2)CC1 [mizolastine]
- bioavailability ([2]; in vivo): high

SMILES: CC(C)(O)c1ccccc1CC[C@@H](SCC1(CC(=O)O)CC1)c1cccc(/C=C/c2ccc3ccc(Cl)cc3n2)c1 [montelukast]
- time to peak plasma concentration [3]: 3 to 4 h
- effect of food on oral bioavailability and Cmax ([3]; po): not affected by a standard meal
- AUC range ([3]; po, 10 mg): 1521 to 4595 ng/h/mL
- mean AUC ([3]; po, 10 mg): 2689 ng/h/mL
- doses without clinically relevant side effects [1]: up to 200 mg/day
- drug interactions ([1]; po): no drug interactions

SMILES: CN(C)CCOC(c1ccccc1)c1ccccc1 [Diphenhydramine, diphenhydramine]
- effect on AP-1 and NF-kB activity / RANTES production [4]: ineffective
